Experimental data as given in BindingDB's records for doi:10.1016/s0960-894x(99)00675-7 (Medivir, 2000).

Target: T1, Gag-Pol polyprotein [588-1027]/[588-1147] (Human immunodeficiency virus 1, UniProt P04585)
T1 construct: 588-1027; 588-1147
Assay: HIV-1 RT Assay
Conditions: pH 7.8; 37 °C
Text: The IC50 of reverse transcriptase is the concentration that inhibits 50% of recombinant HIV-1 RT RNA-directed DNA polymerase activity in vitro.

| Structure (SMILES) | IC50 |
| --- | --- |
| O=C(CCNC(=S)Nc1ccc(Br)cn1)c1ccccc1 [3-(5-bromopyridin-2-yl)-1-(3-oxo-3-phenylpropyl)thiourea] | < 0.027 µM |
| O=S(=O)(NCCc1ccccc1)Nc1ccc(Cl)cn1 [[(5-chloropyridin-2-yl)sulfamoyl](2-phenylethyl)amine] | > 10 µM |
| COc1ccccc1CCN=C(NC#N)Nc1nccs1 [2-cyano-3-[2-(2-methoxyphenyl)ethyl]-1-1,3-thiazol-2-ylguanidine] | > 10 µM |
| N#CN/C(=N\c1ccc(Cl)cn1)NCCc1ccccc1 [5-chloro-2-cyano-1-(2-phenylethyl)pyridine-2-guanidine] | > 10 µM |
| O=C(CC/N=C(\S)Nc1ccc(Br)cn1)c1cc(F)ccc1F [3-(5-bromopyridin-2-yl)-1-[3-(2,5-difluorophenyl)-3-oxopropyl]thiourea] | < 0.025 µM |
